Reference: publication PMC2244712, “One-Pot, Mix-and-Read Peptide-MHC Tetramers” (PLoS ONE, 2008)
Residues, ends and D or L forms follow the SMILES beside them.

How the values were obtained:
HLA-A*0201 = molecular target: T1, HLA-A*0201 (Homo sapiens, UniProt P04439, D140Y/D185E/D98H/E176V/E277Q/G131W/G231S/I119V/I121R/I166T/I218V/L300P/L318F/N151K/N90K/P208A/P217A/Q86G/Q94H/R138H/R169H/T345S); assay: biochemical; assay type: binding
T1 construct: generated from synthetic codon optimized and truncated genes without the transmembrane region; BSP (BirA biotinylation substrate peptide, biotinylated in vivo or not) (C); made in house; host or cells: E. coli BL21 (DE3), pET28a+, co-transformed with a BirA vector

[1] = molecular target: in vivo biotinylated HLA-B*0702-BSPHAT heavy chain folded with ß2m (human); assay: ELISA
[2] = molecular target: in vivo biotinylated HLA-A*0201-HAT-BSP heavy chain folded with ß2m (human); assay: ELISA
[3] = molecular target: in vivo biotinylated HLA-B*4402-HATBSP heavy chain folded with ß2m (human); assay: ELISA

Chain of CMV pp65 417-426 peptide (P06725 whole entry, looked up): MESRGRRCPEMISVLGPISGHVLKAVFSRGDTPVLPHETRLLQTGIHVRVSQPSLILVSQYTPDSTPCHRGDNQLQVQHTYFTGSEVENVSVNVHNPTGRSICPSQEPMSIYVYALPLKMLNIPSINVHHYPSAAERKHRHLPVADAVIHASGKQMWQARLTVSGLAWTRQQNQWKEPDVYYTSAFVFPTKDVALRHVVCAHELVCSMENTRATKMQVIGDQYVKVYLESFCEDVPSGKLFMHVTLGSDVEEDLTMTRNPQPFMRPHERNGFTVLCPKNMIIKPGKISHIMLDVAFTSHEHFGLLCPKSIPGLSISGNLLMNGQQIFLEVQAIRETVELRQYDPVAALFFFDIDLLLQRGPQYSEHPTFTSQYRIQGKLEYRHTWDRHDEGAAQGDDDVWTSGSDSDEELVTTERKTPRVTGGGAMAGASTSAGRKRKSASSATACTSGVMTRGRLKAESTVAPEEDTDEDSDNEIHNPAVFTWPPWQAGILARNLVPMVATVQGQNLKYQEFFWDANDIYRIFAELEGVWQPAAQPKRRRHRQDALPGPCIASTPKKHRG
Chain of CMV pp65 495-503 peptide (P06725 whole entry, looked up): as above
Chain of EBV EBNA3b 657-666 peptide (P03203 whole entry, looked up): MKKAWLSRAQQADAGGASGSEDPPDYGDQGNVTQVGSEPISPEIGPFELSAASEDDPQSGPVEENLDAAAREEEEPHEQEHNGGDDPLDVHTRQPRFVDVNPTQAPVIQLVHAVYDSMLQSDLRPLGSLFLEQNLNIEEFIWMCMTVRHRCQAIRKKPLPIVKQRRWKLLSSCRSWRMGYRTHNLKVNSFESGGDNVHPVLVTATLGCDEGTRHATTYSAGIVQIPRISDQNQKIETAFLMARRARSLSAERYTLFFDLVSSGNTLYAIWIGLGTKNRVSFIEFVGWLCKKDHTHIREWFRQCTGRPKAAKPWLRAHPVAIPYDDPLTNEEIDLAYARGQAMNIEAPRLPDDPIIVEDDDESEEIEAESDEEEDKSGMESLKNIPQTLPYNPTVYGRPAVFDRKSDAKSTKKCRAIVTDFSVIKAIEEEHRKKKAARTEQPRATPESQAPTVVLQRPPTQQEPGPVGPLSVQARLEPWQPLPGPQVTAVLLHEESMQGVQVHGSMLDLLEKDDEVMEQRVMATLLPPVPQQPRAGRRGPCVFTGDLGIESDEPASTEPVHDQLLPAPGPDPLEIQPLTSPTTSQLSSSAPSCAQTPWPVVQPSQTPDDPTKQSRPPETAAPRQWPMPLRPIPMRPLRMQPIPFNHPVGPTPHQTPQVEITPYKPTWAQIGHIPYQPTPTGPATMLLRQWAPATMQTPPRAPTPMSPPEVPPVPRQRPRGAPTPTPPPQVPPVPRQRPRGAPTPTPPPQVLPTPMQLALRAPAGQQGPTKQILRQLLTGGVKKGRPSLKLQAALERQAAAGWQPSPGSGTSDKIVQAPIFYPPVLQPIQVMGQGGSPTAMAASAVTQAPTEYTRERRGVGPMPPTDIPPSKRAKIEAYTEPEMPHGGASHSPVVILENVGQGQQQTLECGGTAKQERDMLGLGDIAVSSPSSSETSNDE

Compound	Kd (HLA-A*0201) [nM]	further results
CC[C@H](C)[C@H](NC(=O)[C@H](CCCCN)NC(=O)[C@H](CCCCN)NC(=O)[C@H](CS)NC(=O)[C@H](C)NC(=O)[C@H](CC(=O)O)NC(=O)[C@H](CO)NC(=O)[C@H](CC(C)C)NC(=O)[C@H](C)N)C(=O)O (H-ALSDACKKI-OH)	> 1000	
CC(C)C[C@H](NC(=O)[C@@H](N)Cc1ccccc1)C(=O)N[C@@H](CCC(=O)O)C(=O)N[C@H](C(=O)N[C@@H](CC(=O)O)C(=O)N[C@@H](C)C(=O)NCC(=O)N[C@@H](CCCNC(=N)N)C(=O)N[C@H](C(=O)O)C(C)C)[C@@H](C)O (H-FLETDAGRV-OH)	10 to 100	
CC[C@H](C)[C@H](NC(=O)[C@@H](NC(=O)[C@H](CC(=O)O)NC(=O)[C@H](Cc1ccc(O)cc1)NC(=O)[C@H](CC(=O)O)NC(=O)[C@H](CC(C)C)NC(=O)[C@@H](N)Cc1ccc(O)cc1)[C@@H](C)O)C(=O)N[C@@H](Cc1ccc(O)cc1)C(=O)N[C@H](C(=O)O)C(C)C (H-YLDYDTIYV-OH)	< 10	
CC[C@H](C)[C@H](NC(=O)[C@H](CC(N)=O)NC(=O)[C@@H](NC(=O)[C@H](C)NC(=O)[C@H](CO)NC(=O)[C@H](CC(=O)O)NC(=O)[C@H](CO)NC(=O)[C@H](CC(C)C)NC(=O)[C@@H](N)Cc1ccc(O)cc1)[C@@H](C)CC)C(=O)O (H-YLSDSAINI-OH)	< 10	
CC(C)C[C@H](NC(=O)[C@@H](N)Cc1ccc(O)cc1)C(=O)N[C@@H](CO)C(=O)N[C@H](C(=O)N[C@@H](CCC(=O)O)C(=O)N[C@@H](CCCNC(=N)N)C(=O)N[C@@H](CC(=O)O)C(=O)N[C@@H](Cc1c[nH]cn1)C(=O)N[C@H](C(=O)O)C(C)C)[C@@H](C)O (H-YLSTERDHV-OH)	10 to 100	
CMV pp65 417-426 peptide (from UniProt P06725 417-426)		% folding [1]: 100%
CMV pp65 495-503 peptide (from UniProt P06725 495-503)		% folding [2]: 95%
EBV EBNA3b 657-666 peptide (from UniProt P03203 657-666)		% folding [3]: 100%
